Measured values taken from article PMC9728921, “Characterization of a KDM5 small molecule inhibitor with antiviral activity against hepatitis B virus” (PLOS ONE, 2022).

How the values were obtained:
[1] = Cytotoxicity CC50, Gal-HepG2; format: cell-based; settings: human, Gal-HepG2 cells (galactose adapted hepatoblastoma cell line)
From the text: (§1) a Values represent the geometric mean and multiplicative standard deviation of 3 – 5 primary human hepatocyte (PHH) donors or 5 – 10 independent experiments.
(§2) b MT-4: human T-lymphoblastoid cell line; PBMC: peripheral blood mononuclear cell; Gal-HepG2: galactose adapted human hepatoblastoma cell line; Huh-7: human hepatoma cell line; Gal-PC3: galactose adapted human prostate carcinoma cell line; MRC-5: Medical Research Council 5 embryonal lung fibroblast; NRVM: neonatal rat ventricular cardiomyocytes

Cytotoxicity CC50, PBMC = format: cell-based; settings: human, PBMC (peripheral blood mononuclear cells)
From the text: as §1, §2

Cytotoxicity CC50, NRVM = format: cell-based; settings: rat, NRVM (neonatal rat ventricular cardiomyocytes)
From the text: as §1, §2

[2] = Cytotoxicity CC50, Gal-PC3; format: cell-based; settings: human
From the text: as §1, §2

Cytotoxicity CC50, MT-4 = format: cell-based; settings: human, MT-4 cells (T-lymphoblastoid cell line)
From the text: as §1, §2

Cytotoxicity CC50, PHH = format: cell-based; settings: human, primary human hepatocytes (PHH)
From the text: as §1, §2

[3] = Cytotoxicity in HBV-infected PHH (50% decrease in GAPDH or RPLP0); format: cell-based, human; settings: human, HBV-infected primary human hepatocytes (PHH); for CC50 at 14 days: PHH donor Hu8181, treated every three to four days for 14 days
PHH = assay: as above; format: cell-based, human; settings: treated every three to four days for 14 days
HBV [4] = assay: Extracellular HBV DNA (vDNA) by qPCR in HBV-infected PHH; format: cell-based; settings: Hepatitis B virus
Description: (§3) Approximately 24 hours after plating, PHH were infected with HepAD38-derived GTD virus at 500 viral genome equivalents per cell in maintenance medium supplemented with 4% PEG 8000 (Promega, Madison, WI; V3011). For patient sera infections, PHH were infected with 6 μl of patient sera in maintenance medium supplemented with 4% PEG 8000. Infections were allowed to proceed for 20–24 hours before removing remaining extracellular virions by washing with maintenance medium three times. […]
Viral DNA from PHH supernatants was purified using the Qiagen DNeasy 96 kit (Germantown, MD; 69582) following the manufacturer’s recommended protocol. Briefly, 50 μl of supernatant was collected, lysed with an equal volume of Qiagen ATL buffer containing 10% proteinase K, and then incubated at 56°C for 10 minutes. Lysates were then mixed with 100 μl of […] containing ethanol, transferred into the DNeasy 96 well plate, and placed onto a vacuum manifold (Qiagen; 19504). The vacuum was applied to bind DNA to the DNeasy membrane while contaminants passed through. DNA bound to the membrane was washed first with 500 μl of AW1followed by 500 μl of AW2 buffer. After washing, plates were centrifuged (Sigma Model 4-16S) at 6000 rpm for 2 minutes. DNA was then eluted with 100 μl of pre-warmed AE buffer by a final centrifugation step of 6000 rpm for 2 minutes.
Quantification of vDNA by qPCR (quantitative polymerase chain reaction) amplification of the HBVX region of the genome was performed by combining 5 μl of DNA, 900 nM of forward primer (5’[…] 3’), 900 nM of reverse primer (5’[…]-3’), 0.2 μM TaqMan probe (5’ [6FAM] […] [NFQ-MGB] 3’), and 1X TaqMan Fast Advanced Master Mix (Thermo Fisher Scientific; 4444557) for a total reaction volume of 20 μl in 96-well PCR plates (Thermo Fisher Scientific; 4346906). qPCR was carried out on a real-time PCR system (Thermo Fisher Scientific; QuantiStudio 7 Flex) using the following conditions: 95°C for 20 seconds, followed by 40 cycles of 95°C for 1 second and 60°C for 20 second. A plasmid containing the HBV full genome was used for the standard curve.
(§4) Antiviral activity of test compounds was determined from vRNA, vDNA, HBeAg, and HBsAg data by comparing compound-treated PHH to DMSO (vehicle)-treated PHH to generate a percent of DMSO control value (% DMSO control). The % DMSO control was calculated by the following equation: %DMSOControl=100xXc/XD where Xc is the signal from the compound-treated PHH and XD is the signal from the DMSO-treated PHH. The % DMSO control for vRNA, vDNA, HBeAg, HBsAg, GAPDH, or RPLP0 was plotted versus the log of each compound concentration in GraphPad Prism (version 6; Graphpad Software, LaJolla, CA) to generate dose-response curves. […] Dose-response curves were fitted using the nonlinear regression equation “log(agonist) versus response–variable slope (four parameters)” in GraphPad Prism to determine EC50 values.

HBV [5] = assay: Intracellular HBV RNA (vRNA) by qRT-PCR in HBV-infected PHH; format: cell-based; settings: Hepatitis B virus
Description: as §3
Intracellular HBV viral RNA was isolated from PHH using the RNeasy 96 kit (Qiagen, 74182) following the manufacturer’s recommended protocol. Briefly, 125 μl of Qiagen RLT lysis buffer was added to PHH. The PHH lysate was then thoroughly mixed with 125 μl of 70% ethanol, transferred into a RNeasy 96 well plate, and placed onto a vacuum manifold (Qiagen; 19504). The plate was washed using RW1 and RPE buffers, followed by centrifugation (Sigma-Aldrich, Model 4-16S) at 6000 rpm for 2 minutes. The RNA was then eluted twice with 60 μl of nuclease free water for a total of 120 μl RNA.
After elution, DNase digestion by Turbo DNase (Thermo Fisher Scientific; AM2239) was performed to remove any contaminating DNA. After 30 minutes of DNase treatment at 37°C, Turbo DNase was inactivated by adding 15 mM of EDTA and heating the reaction to 75°C for 10 minutes in a thermo cycler (Thermo Fisher Scientific; Veriti 96 Well Thermal Cycler).
GAPDH or RPLP0 mRNA expression was used to normalize target gene expression. Levels of HBV RNA for all donors were calculated as fold change relative to no drug treated sample using the 2-ΔΔCt method.
as §4

[6] = read-out: vDNA EC50, PHH donor BCD, HBV GTD, treated every three to four days for 14 days
[7] = read-out: vDNA EC50, PHH donor Hu276, HBV GTD, treated every three to four days for 14 days
[8] = read-out: vDNA EC50, PHH donor Hu349, HBV GTD, treated every three to four days for 14 days
[9] = read-out: vDNA EC50, PHH donor Hu4167, HBV GTD, treated every three to four days for 14 days
[10] = read-out: vDNA EC50, PHH donor Hu7272, HBV GTD, treated every three to four days for 14 days
[11] = read-out: vDNA EC50, PHH donor Hu8130, HBV GTD, treated every three to four days for 14 days
[12] = read-out: vDNA EC50, PHH donor Hu8181, HBV GTD, treated every three to four days for 14 days
[13] = read-out: vRNA EC50, PHH donor BCD, HBV GTD, treated every three to four days for 14 days
[14] = read-out: vRNA EC50, PHH donor Hu276, HBV GTD, treated every three to four days for 14 days
[15] = read-out: vRNA EC50, PHH donor Hu349, HBV GTD, treated every three to four days for 14 days
[16] = read-out: vRNA EC50, PHH donor Hu4167, HBV GTD, treated every three to four days for 14 days
[17] = read-out: vRNA EC50, PHH donor Hu7272, HBV GTD, treated every three to four days for 14 days
[18] = read-out: vRNA EC50, PHH donor Hu8130, HBV GTD, treated every three to four days for 14 days
[19] = read-out: vRNA EC50, PHH donor Hu8181, HBV GTD, treated every three to four days for 14 days

CCN(CCN(C)C)C(=O)CNCc1cc(C(=O)O)ccn1 [GS-080]
CC50 [1]: > 44 µM | CC50 (Cytotoxicity CC50, PBMC): > 44 µM | CC50 (Cytotoxicity CC50, NRVM): > 44 µM | CC50 [2]: > 44 µM | CC50 (Cytotoxicity CC50, MT-4): > 57 µM | CC50 (Cytotoxicity CC50, PHH): > 50 µM

CCOC(=O)c1ccnc(CNCC(=O)N(CC)CCN(C)C)c1 [GS-5801]
CC50 [1]: > 44 µM | CC50 (Cytotoxicity CC50, PBMC): > 44 µM | CC50 (Cytotoxicity CC50, NRVM): > 44 µM | CC50 at 14 days [3]: > 10 µM | CC50 ([3]; the seven PHH donors tested): > 10 µM | CC50 (PHH; PHH donor Hu276): > 10 µM | CC50 (PHH; PHH donor Hu349): > 10 µM | CC50 (PHH; PHH donor Hu4167): > 10 µM | CC50 (PHH; PHH donor Hu7272): > 10 µM | CC50 (PHH; PHH donor Hu8130): > 10 µM | CC50 (PHH; PHH donor): > 10 µM | EC50 (HBV [4]; 336 h, read-out: EC50 range across genotypes, extracellular HBV DNA, range across genotypes, 14 days of dosing): 0.079 to 0.25 µM | EC50 (HBV [4]; 336 h, read-out: EC50 range for extracellular DNA, range over the seven PHH donors tested, HBV GTD, Day 14): 0.0071 to 1.3 µM | EC50 (HBV [4]; 336 h, read-out: median EC50, extracellular HBV DNA, median across HBV genotypes, 14 days of dosing): 0.2 µM | EC50 (HBV [4]; [6]): 0.0071 µM | EC50 (HBV [4]; [7]): 0.07 µM | EC50 (HBV [4]; [8]): 0.23 µM | EC50 (HBV [4]; [9]): 0.11 µM | EC50 (HBV [4]; [10]): 1.1 µM | EC50 (HBV [4]; [11]): 1.3 µM | EC50 (HBV [4]; [12]): 0.14 µM | EC50 (HBV [4]; read-out: vDNA EC50, PHH infected with HBV GTA, treated every three to four days for 13 days): 0.17 µM | EC50 (HBV [4]; read-out: vDNA EC50, PHH infected with HBV GTC, treated every three to four days for 13 days): 0.079 µM | EC50 (HBV [4]; read-out: vDNA EC50, PHH infected with HBV GTD, treated every three to four days for 13 days (Table 3)): 0.22 µM | EC50 (HBV [4]; read-out: vDNA EC50, PHH infected with HBV GTE, treated every three to four days for 13 days): 0.25 µM | CC50 [2]: > 44 µM | CC50 (Cytotoxicity CC50, MT-4): 51 ± 1.2 µM | EC50 (HBV [5]; 336 h, read-out: EC50 range across genotypes, intracellular HBV RNA, range across genotypes, 14 days of dosing): 0.051 to 2.7 µM | EC50 (HBV [5]; 336 h, read-out: EC50 range for intracellular RNA, range over the seven PHH donors tested, HBV GTD, Day 14): 0.034 to 1.1 µM | EC50 (HBV [5]; [13]): 0.034 µM | EC50 (HBV [5]; [14]): 0.042 µM | EC50 (HBV [5]; [15]): 0.43 µM | EC50 (HBV [5]; [16]): 0.047 µM | EC50 (HBV [5]; [17]): 0.93 µM | EC50 (HBV [5]; [18]): 1.1 µM | EC50 (HBV [5]; [19]): 0.16 µM | EC50 (HBV [5]; read-out: vRNA EC50, PHH infected with HBV GTA, treated every three to four days for 13 days): 1.8 µM | EC50 (HBV [5]; read-out: vRNA EC50, PHH infected with HBV GTC, treated every three to four days for 13 days): 0.051 µM | EC50 (HBV [5]; read-out: vRNA EC50, PHH infected with HBV GTD, treated every three to four days for 13 days (Table 3)): 0.43 µM | EC50 (HBV [5]; read-out: vRNA EC50, PHH infected with HBV GTE, treated every three to four days for 13 days): 2.7 µM | CC50 (Cytotoxicity CC50, PHH): > 50 µM

CCOC(=O)c1cc(CNCC(=O)N(CC)CCN(C)C)ncc1Br [GS-420]
CC50 at 14 days [3]: > 10 µM | CC50 (PHH; PHH donor Hu276): > 10 µM | CC50 (PHH; PHH donor Hu349): > 10 µM | CC50 (PHH; PHH donor Hu4167): > 10 µM | CC50 (PHH; PHH donor Hu7272): > 10 µM | CC50 (PHH; PHH donor Hu8130): > 10 µM | CC50 (PHH; PHH donor): > 10 µM | EC50 (HBV [4]; [6]): > 10 µM | EC50 (HBV [4]; [7]): > 10 µM | EC50 (HBV [4]; [8]): > 10 µM | EC50 (HBV [4]; [9]): > 10 µM | EC50 (HBV [4]; [10]): > 10 µM | EC50 (HBV [4]; [11]): > 10 µM | EC50 (HBV [4]; [12]): > 10 µM | EC50 (HBV [5]; [13]): > 10 µM | EC50 (HBV [5]; [14]): > 10 µM | EC50 (HBV [5]; [15]): > 10 µM | EC50 (HBV [5]; [16]): > 10 µM | EC50 (HBV [5]; [17]): > 10 µM | EC50 (HBV [5]; [18]): > 10 µM | EC50 (HBV [5]; [19]): > 10 µM
